For 23 molecules, IC50 and selectivity ratio results are on record in ChEMBL document CHEMBL3632462, “Synthesis and evaluation of phenoxymethylbenzamide analogues as anti-trypanosomal agents” (Medchemcomm, 2015).

Molecules are shown by their SMILES.

In series [1] the test system is Trypanosoma brucei brucei. Description: Antitrypanosomal activity against Trypanosoma brucei brucei infected in HEK293 cells assessed as growth inhibition after 72 hrs by Alamar Blue assay. The series is classed as functional, organism-based. Conditions: HEK293, 72 h. On the technique in general: Resazurin is reduced to fluorescent resorufin, in cell work by metabolically active cells.

In the next series the test system is Trypanosoma cruzi. Description: Antitrypanosomal activity against […] of Trypanosoma cruzi Tulahuen C2C4 infected in rat L6 cells assessed as growth inhibition after 96 hrs by beta-galactosidase reporter gene assay. The series is classed as functional, organism-based. Conditions: Tulahuen C2C4, L6, 96 h.
A further series has as its system Plasmodium falciparum. Description: Antiparasitic activity against erythrocytic stage of Plasmodium falciparum NF54 assessed as growth inhibition after 48 hrs by [3H]-hypoxanthine incorporation assay. The series is classed as functional, organism-based.
Series [2] relates to Trypanosoma brucei rhodesiense. Description: Antitrypanosomal activity against bloodstream form of Trypanosoma brucei rhodesiense STIB900 assessed as growth inhibition after 70 hrs by resazurin dye-based fluorometric analysis. The following applies: STIB900, 70 h. The format is functional, organism-based.
Series [3] can be described thus: Selectivity index, ratio of IC50 for rat L6 cells to IC50 for bloodstream form of Trypanosoma brucei rhodesiense STIB900. The series is classed as toxicity, cell-based. The following applies: read-out: Ratio IC50.
In a further series the test system is L6. Description: Cytotoxicity against rat L6 cells after 70 hrs by resazurin dye-based fluorometric analysis. Conditions: L6, 70 h. The format is cell-based.
The test system of the next series is Leishmania donovani. Description: Antiparasitic activity against amastigote form of Leishmania donovani MHOM/ET/67/L82 assessed as growth inhibition after 70 hrs by resazurin dye-based fluorometric analysis. The series is classed as functional, organism-based. The following applies: MHOM/ET/67/L82, 70 h.
Series [4] can be described thus: Selectivity index, ratio of IC50 for HEK293 cells to IC50 for Trypanosoma brucei brucei infected in HEK293 cells. The series is classed as toxicity, cell-based. Conditions: human, read-out: Ratio IC50.

In general, IC50 refers to the concentration at which inhibition is half-maximal. Regarding `CCOc1ccc(OCc2ccc(C(=O)N3CCC(C)CC3)cc2)cc1`, the 50% inhibitory concentration (IC50) in series [1] was above 50 µM.

Take `O=C(Cn1ccnc1[N+](=O)[O-])NCc1ccccc1` [BENZNIDAZOLE]: the IC50 with Trypanosoma cruzi was found to be 2.33 µM.

Turning to `CCOc1ccc(OCc2ccc(C(=O)N3CCCC(C)C3)cc2)cc1` (stereo not given), the IC50 in the series on Plasmodium falciparum was found to be 22.3 µM; in series [2], 0.985 µM; in the series on L6 it was 186 µM; in the series with Leishmania donovani it was 35.7 µM; in series [1], 1.15 µM; in the series on Trypanosoma cruzi, 107 µM. Besides, the selectivity ratio stood at 190 in series [3] and 36 in series [4].

For the molecule `CCOc1ccc(OCc2ccc(C(=O)O)cc2)cc1`, the IC50 in series [1] is above 50 µM.

Consider `CCOc1ccc(OCc2ccc(C(=O)N3CCOCC3)cc2)cc1`, for which the selectivity ratio in series [4] was 20. Further, the IC50 in series [1] amounted to 4.2 µM.

Consider `Cc1ccc(OCc2ccc(C(=O)N3CCC(C)CC3)cc2)cc1`, for which, in series [1], the IC50 was above 50 µM.

Turning to `COc1ccc(OCc2ccc(C(=O)N3CCN(C)CC3)cc2)cc1`, the IC50 in series [1] is above 50 µM.

For `CCCc1ccc(OCc2ccc(C(=O)N3CCCC(C)C3)cc2)cc1` (stereo not given), the IC50 in series [1] was above 50 µM.

Consider `COc1ccc(OCc2ccc(C(=O)N3CCC(C)CC3)cc2)cc1`, for which the IC50 in series [1] was above 50 µM.

As for `CCOc1ccc(OCCCCCC(=O)N(C(C)C)C(C)C)cc1`, the selectivity ratio in series [4] stood at 41. The IC50 in series [1] was found to be 2.03 µM.

Regarding `CCOc1ccc(OCc2ccc(C(=O)NC(C)C)cc2)cc1`, the IC50 in series [1] was above 50 µM.

Regarding `CCOc1ccc(NCc2ccc(C(=O)N3CCOCC3)cc2)cc1`, in series [4], the selectivity ratio came out at 4. In addition, the IC50 in series [1] was 20.6 µM.

On to `CCOc1ccc(OCCCCCC(=O)N2CCCCC2C)cc1` (stereo not given), for which the selectivity ratio in series [4] stood at 50. For the same molecule, in series [1], the IC50 amounted to 1.66 µM.

Regarding `CCc1ccc(OCc2ccc(C(=O)N3CCN(C)CC3)cc2)cc1`, in series [1], the IC50 was above 50 µM.

In the case of `CCCCCCCCCCCCCCCCOP(=O)([O-])OCC[N+](C)(C)C` [MILTEFOSINE], in the series with Leishmania donovani, the IC50 was found to be 0.572 µM.

For the molecule `CCc1ccc(OCc2ccc(C(=O)N3CCOCC3)cc2)cc1`, the selectivity ratio in series [4] amounted to 6. In addition, the IC50 in series [1] is 14.8 µM.

On to `Cc1ccc(OCc2ccc(C(=O)N3CCCCC3C)cc2)cc1` (stereo not given), for which the selectivity ratio in series [4] was determined as 9. Also, the IC50 in series [1] was determined as 9.2 µM.

In the case of `CCOc1ccc(NCc2ccc(C(=O)N3CCCCC3)cc2)cc1`, the selectivity ratio in series [4] came out at 29. For the same molecule, in series [1], the IC50 turned out to be 2.9 µM.

For `CCOc1ccc(OCCCCCC(=O)N2CCCCC2)cc1`, the selectivity ratio in series [4] turned out to be 5. The IC50 in series [1] amounted to 7.35 µM.

Consider `CCOc1ccc(OCc2ccc(C(=O)N3CCN(C)CC3)cc2)cc1`, for which the IC50 in series [1] is above 50 µM.

As to `CCc1ccc(OCc2ccc(C(=O)N3CCC(C)CC3)cc2)cc1`, the IC50 in series [1] is above 50 µM.

Consider `CCCc1ccc(OCc2ccc(C(=O)N3CCCCC3C)cc2)cc1` (stereo not given), for which, in series [4], the selectivity ratio was determined as 8. For the same molecule, in series [1], the IC50 is 10 µM.

Turning to `COc1ccc(OCc2ccc(C(=O)N(C)c3ccccc3)cc2)cc1`, the selectivity ratio in series [4] is 5. Besides, in series [1], the IC50 is 18 µM.
